# Measurements: US9389237B2, “Methods for inhibiting the development of Huntington's disease” (priority 2003, dated 2016)
# Several values for one entry are separate records, joined by “and”; a condition that tells them apart may be missing. Identical values can stand only once. Entries after “also recorded” stand apart in the source; their conditions may differ.
# How the values were obtained:
# [1] = Serum hormone level (ES/TT) in treated HD mice; details: subcutaneous injection as emulsion with Freund's incomplete adjuvant
# Method: Hormone tests of serum were performed to verify the blood levels of estradiol or testosterone. The mice (controls=no treatment) were tested against liter mates receiving either (E1 and E3 100 ug/ml weekly) or (E2 and E4 200 ug/ml injection weekly).
# Blood specimens for estradiol assay using Elisa methodology was obtained during the study.
# Stock solution of estradiol and testosterone were diluted with water and mixed with Freund's incomplete adjuvant. This was mixed continuously for 1 minute and either 100 ul (E1 and E3) or 200 ul (E2 and E4) were injected subcutaneously. […] Animals in the E1 and E3 groups were targeted to receive 100-300 pg/ml estrogen and groups E2 and E4 were targeted to receive 400-800 pg/ml of estrogen. Animals in T1 and T2 grouping were targeted to receive 100 pg/ml testosterone.
# [2] = system: HD transgenic mice (HDexon 1 + 159-161 CAG repeat units); experiment: Beam walking (raised beam) of treated HD transgenic mice; assay type: in vivo; details: for ability to transverse the ½ in beam in the allotted time / improvement over the course of the study (continued ability to cross the ½ in^2 beam after controls were unable): HD mice, 150 seconds allotted; for ability to transverse the ½ in beam in the allotted time: versus untreated control liter mates; for improvement over the course of the study (continued ability to cross the ½ in^2 beam after controls were unable): two weeks after control animals failed; for time after untreated liter mates were unable to perform the trained task, with retained cognitive decision making and motor function: HD transgenic mice, beam task
# Source text: (§1) 30 HD mice were obtained from the Jackson Laboratory, Bar Harbor, Me. The group consists of a 15 hemizygous female strain #2810 and 15 hemizygous males strain #2810 (containing the transgene HDexon 1+159-161 CAG repeat units). These mice were grouped as follows: • All mice received ear clips as identification, noting hair color. • 1-15 were males and 16-29 were females mouse #30 arrived dead. • Male mice: 1-4 were control animals receiving no treatment, 5,6,7,11 were grouped as E1 8, 9, 10 and 12 were grouped as E2. 13, 14 and 15 were grouped as T1, receiving 100 ug/ml testosterone weekly. • Female mice: 16-19 were control animals receiving no treatment. 20, 21, 22, 26 were grouped as E3, 23, 24, 25, 27 were grouped as E4. 28 and 29 were grouped as T2, receiving 100 ug/ml testosterone.
# Utilizing the raised beam, mice were assessed for their ability to transverse a graded series of narrow beams to reach a safety platform. The beams consisted of long strips of wood with a 12 mm or 5 mm square cross section. The beams were placed horizontally, 50 cm above each bench surface, with one end mounted on a narrow support and the other end attached to an enclosed box to which the animal could escape. Two inches of dense foam was placed under the test area to protect the animals from fall injury. Training took place in a 3 or 4 day period, where the mice were trained two to four times in a four day period using the 12 mm square beam. Once they were trained to walk the beam (i.e., traversing the 12 mm square beam in less than 20 seconds), they received two consecutive trails on each of the square beam and each of the round beams, in each case progressing from the widest to the narrowest beam. Mice were afforded 150 seconds to traverse each beam. The number of times the mice slipped off of the beam was recorded for each trial. The mean score was used for each trial.
# [3] = system: HD transgenic mice (HDexon 1 + 159-161 CAG repeat units); experiment: Body weight of hormone treated HD transgenic mice; assay type: in vivo; details: for Last wt Week 12 / Peak wt Weeks 8/9 / % change in weight / Change in Grams / % change: single animals; for Average % change: group average weight loss; for % change in weight / Change in Grams / % change: peak to week 12
# Source text: as §1, with “13, 14 and 15 were grouped as T1, receiving 100 ug/ml testosterone weekly. • Female mice: 16-19 were control animals receiving no treatment. 20, 21, 22, 26 were grouped as E3, 23, 24, 25, 27 were grouped as E4.” left out
# Body Weight: All animals were weighed on a scale weekly throughout the study. All weights were recorded.
# [4] = system: HD transgenic mice (HDexon 1 + 159-161 CAG repeat units); experiment: Brain weight at week 12 of treated HD transgenic mice; assay type: in vivo; details: for Brain weight at week 12: single animals
# Source text: as §1, with “were males and 16-29 were females mouse #30 arrived dead. • Male mice: 1-4 were control animals” left out, “[…],” for “5,6,7,11 were grouped as E1 8,”, “13, 14 and 15 were grouped as T1, receiving 100 ug/ml testosterone weekly. • Female mice: 16-19 were control animals receiving no treatment.” left out
# After euthanized, all brains of all mice were surgically removed and placed in a solution of formaldehyde and weighed on a scale. The weights were recorded.
# [5] = system: mutant form of huntingtin; experiment: In vitro estradiol binding study, overall conclusion; details: conclusion from Table 2
# Method: These pure proteins were then used in the following binding protocol. Oestradiol-6-(0-carboxymethyl)oximino-(2-[125I] iodohistamine was used as the estradiol source. Buffer B preferably comprises: 250 mM tris, 150 mM NaCl, and a Dextran Charcoal solution comprising 0.05% Dextran coated charcoal in buffer B (sigma Cat#6197). About 0.5 ml of buffer B was preferably used per reaction. A total of 5 ml of Buffer B was aliquoted into a glass borosilicate tube (Fisher Cat#14-961-26) and 10 μL of Oestradiol (1125) was added containing approximately 2,000,000 cpm. About 0.5 ml of this solution was then distributed into eight labeled glass tubes (cat #14-961-260). The entire tube #1's 500 μL was counted. Tube #2 through #8 were treated in the following manner:
# Tubes #2-#8 were incubated for 1 hour at room temperature, placed on ice for ten minutes, and 200 μL of the Dextran charcoal solution in buffer B was added. These tubes were then placed on ice ten minutes and then centrifuged 15 minutes at 2200 rpm in a Sorvall RC-3 refrigerated centrifuge with swinging bucket rotor (Sorvall HL-8) at 4 degrees. The entire 700 μL supernatant was removed and counted using Genesys multi-well gamma counter (Laboratories Technology, Inc.). The results are summarized below: […]
# [6] = female HD mice, group E1, 100 ul ES dose weekly, target blood level 100-300 pg/ml
# [7] = female HD mice, group E1, 100 ul ES dose weekly
# [8] = female HD mice, group E2, 200 ul ES dose weekly, target blood level 400-800 pg/ml
# [9] = female HD mice, group E2, 200 ul ES dose weekly
# [10] = male HD mice, group E3, 100 ul ES dose weekly, target blood level 100-300 pg/ml
# [11] = male HD mice, group E3, 100 ul ES dose weekly
# [12] = male HD mice, group E4, 200 ul ES dose weekly, target blood level 400-800 pg/ml
# [13] = male HD mice, group E4, 200 ul ES dose weekly
# [14] = female HD mice, group T1, 100 ul T dose weekly, target blood level 50-100 pg/ml
# [15] = female HD mice, group T1, 100 ul T dose weekly
# [16] = male HD mice, group T2, 100 ul T dose weekly, target blood level 50-100 pg/ml
# [17] = male HD mice, group T2, 100 ul T dose weekly
structure (smiles),measurement,setting,value
"CC12CCC3c4ccc(O)cc4CCC3C1CC[C@@H]2OC(=O)CCC1CCCC1 (stereo partly drawn) [estradiol cypionate, estradiol 17-cyclopentanepropionate]",release after injection,[1],continuous over six days
same,ability to transverse the ½ in beam in the allotted time,[2],significant improvement; also recorded: able to complete the traversing of the beam in the allotted time; also recorded: significant increase in their ability to cross the beam within the time allotment
same,improvement over the course of the study (continued ability to cross the ½ in^2 beam after controls were unable),[2],16.6%
same,"time after untreated liter mates were unable to perform the trained task, with retained cognitive decision making and motor function",[2],14 days
same,Last wt Week 12,[3]; [6],21.7 g and 16.9 g and 18.9 g and 18.2 g
same,Peak wt Weeks 8/9,[3]; [6],24.0 g and 19.9 g and 21.2 g and 25.0 g
same,Average % change,"[3]; female HD mice, group E1, 100 ul ES dose weekly, controls 21.7%",15.5%
same,% change in weight,[3]; [7],−9.0% and −15.0% and −10.8% and −27.2%
same,Change in Grams,[3]; [7],−2.3 g (2×) and −3.0 g and −6.8 g
same,Last wt Week 12,[3]; [8],20.5 g and 17.6 g and 13.5 g and 20.7 g
same,Peak wt Weeks 8/9,[3]; [8],21.5 g and 21.8 g and 19.8 g and 22.5 g
same,Average % change,"[3]; female HD mice, group E2, 200 ul ES dose weekly, controls 21.7%",15.7%
same,% change in weight,[3]; [9],−4.6% and −19.2% and −31.0% and −8.0%
same,Change in Grams,[3]; [9],-1.0 g and -4.2 g and -6.3 g and -1.8 g
same,Last wt Week 12,[3]; [10],19.6 g and 22.6 g and 21.7 g and 23.5 g
same,Peak wt Weeks 8/9,[3]; [10],26.2 g and 26.7 g and 24.8 g and 26.4 g
same,Average % change,"[3]; male HD mice, group E3, 100 ul ES dose weekly, controls 27.2%",15.9%
same,% change,[3]; [11],−25.0% and −15.3% and −12.5% and −10.9%
same,Change in Grams,[3]; [11],-6.6 g and -4.1 g and -3.1 g and -2.9 g
same,Last wt Week 12,[3]; [12],22.9 g and 19.6 g and 20.2 g and 19.4 g
same,Peak wt Weeks 8/9,[3]; [12],26.2 g and 24.6 g and 23.7 g and 22.1 g
same,Average % change,"[3]; male HD mice, group E4, 200 ul ES dose weekly, controls 27.2%",14.9%
same,% change,[3]; [13],−12.5% and −20.3% and −14.7% and −12.2%
same,Change in Grams,[3]; [13],-3.3 g and -5.0 g and -3.5 g and -2.7 g
same,Brain weight at week 12,[4]; [7],0.33 g and 0.36 g and 0.34 g and 0.30 g
same,Brain weight at week 12,[4]; [9],0.33 g and 0.37 g (2×)
same,Brain weight at week 12,[4]; [11],0.37 g (2×) and 0.40 g (2×)
same,Brain weight at week 12,[4]; [13],0.39 g and 0.34 g and 0.35 g
same,increase in brain weight,"[4]; on average, lower level (100-300 Pg/ml) of estrogen treatment versus untreated",≤ 10%
"C[C@]12CC[C@@H]3c4ccc(O)cc4CC[C@H]3[C@@H]1CC[C@@H]2O [estradiol, 1,3,5(10)-estratriene-3,17beta-diol]",affinity for mutant huntingtin,[5],an affinity for estradiol has been demonstrated
"CC12CCC(=O)C=C1CCC1[C@@H]2CCC2(C)[C@@H](OC(=O)CCC3CCCC3)CC[C@@H]12 (stereo partly drawn) [testosterone cypionate, androst-4-en-3-one,17-(3-cyclopentyl-1-oxopropoxy)-, (17β)-]",ability to transverse the ½ in beam in the allotted time,[2],significant improvement
same,improvement over the course of the study (continued ability to cross the ½ in^2 beam after controls were unable),[2],16.6%
same,"time after untreated liter mates were unable to perform the trained task, with retained cognitive decision making and motor function",[2],14 days
same,Last wt Week 12,[3]; [14],17.4 g and 14.5 g
same,Peak wt Weeks 8/9,[3]; [14],27.6 g and 21.6 g
same,Average % change,"[3]; female HD mice, group T1, 100 ul T dose weekly, controls 21.7%",34.8%
same,% change in weight,[3]; [15],−36.9% and −32.8%
same,Change in Grams,[3]; [15],-10.2 g and -7.1 g
same,Last wt Week 12,[3]; [16],17.1 g and 25.1 g and 19.0 g
same,Peak wt Weeks 8/9,[3]; [16],23.4 g and 28.0 g and 27.0 g
same,Average % change,"[3]; male HD mice, group T2, 100 ul T dose weekly, controls 27.2%",22.2%
same,% change,[3]; [17],−26.9% and −10.3% and −29.6%
same,Change in Grams,[3]; [17],-6.3 g and -2.9 g and -8.0 g
same,Brain weight at week 12,[4]; [15],0.31 g
same,Brain weight at week 12,[4]; [17],0.31 g and 0.37 g and 0.33 g
